Reference: US9695155B2, “Herbicidal substituted pyrimidinyloxy benzene compounds” (E. I. DU PONT DE NEMOURS AND COMPANY, priority 2013, dated 2017)

Legend:
[1] = system: giant foxtail; assay: Test A postemergence; format: in vivo, Setaria faberii; details: Setaria faberi, post-emergence, 240 h
In short: (§1)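 Greenhouse pot test, loam/sand soil. Formulation: non-phytotoxic solvent mix plus surfactant. Pre: directed spray onto soil after sowing. Post: plants at 1–2 leaf, 2–10 cm. Rated visually vs untreated controls at ~10 d, 0 (no effect) to 100 (complete control).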

[2] = system: chickweed; assay: Test C postemergence; format: in vivo, Stellaria media; details: Stellaria media, post-emergence
In short: (§2)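 Visual injury score versus untreated controls, 0 = no effect, 100 = complete control, taken 13 to 15 days after treatment in the greenhouse. Pre-emergence pots held loam/sand; post-emergence plants grew in sphagnum peat/vermiculite mix and were sprayed at the 1- to 4-leaf stage.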

[3] = system: rice; assay: Test B flooded paddy test; format: in vivo, Oryza sativa; details: Oryza sativa; Flood, 250 g ai/ha; 0 to 100 scale where 0 is no effect and 100 is complete control; read-out: Plant response rating, Rice
In short: (§3)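 2-leaf stage plants; pots flooded to 3 cm, compound added to paddy water, depth maintained. Greenhouse 13–15 d. Visual rating vs untreated controls, 0 (no effect) to 100 (complete control); dash = no result.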

[4] = system: oilseed rape; assay: Test C postemergence; format: in vivo, Brassica napus; details: Brassica napus, post-emergence
In short: as §2

[5] = system: giant foxtail; assay: Test A preemergence; format: in vivo, Setaria faberii; details: Setaria faberi, pre-emergence, 240 h
In short: as §1

[6] = system: pigweed; assay: Test A postemergence; format: in vivo, Amaranthus retroflexus; details: Amaranthus retroflexus, post-emergence
In short: as §1

[7] = system: galium; assay: Test C postemergence; format: in vivo, Galium aparine; details: Galium, post-emergence
In short: as §2

[8] = system: soybean; assay: Test C postemergence; format: in vivo, Glycine max; details: Glycine max, post-emergence
In short: as §2

[9] = system: waterhemp; assay: Test C postemergence; format: in vivo, Amaranthus rudis; details: Amaranthus tuberculatus, post-emergence
In short: as §2

[10] = system: wheat; assay: Test A preemergence; format: in vivo, Triticum aestivum
In short: as §1

[11] = system: Italian ryegrass; assay: Test C postemergence; format: in vivo, Lolium multiflorum; details: Lolium multiflorum, post-emergence
In short: as §2

[12] = system: lambsquarters; assay: Test C postemergence; format: in vivo, Chenopodium album; details: Chenopodium album, post-emergence
In short: as §2

[13] = system: large (Lg) crabgrass; assay: Test A postemergence; format: in vivo, Digitaria sanguinalis; details: Digitaria sanguinalis, post-emergence, 240 h
In short: as §1

[14] = system: barnyardgrass; assay: Test B flooded paddy test; format: in vivo, Echinochloa crus-galli; details: Echinochloa crus-galli; Flood, 250 g ai/ha; 0 to 100 scale where 0 is no effect and 100 is complete control; read-out: Plant response rating, Barnyardgrass
In short: as §3

[15] = system: corn; assay: Test A preemergence; format: in vivo, Zea mays; details: Zea mays, pre-emergence, 240 h
In short: as §1

[16] = system: sedge, umbrella; assay: Test B flooded paddy test; format: in vivo, Cyperus difformis; details: Cyperus difformis, Flood, 250 g ai/ha; 0 to 100 scale where 0 is no effect and 100 is complete control; read-out: Plant response rating, Sedge, Umbrella
In short: as §3

[17] = 125 g ai/ha, 0 to 100 scale where 0 is no effect and 100 is complete control, read-out: Plant response rating, Foxtail, Giant
[18] = 125 g ai/ha, 0 to 100 scale where 0 is no effect and 100 is complete control

For `N#Cc1cccc(Oc2ncc(Cl)cn2)c1-n1cc(Br)cn1` [Compound 52, 2-(4-bromo-1H-pyrazol-1-yl)-3-[(5-chloro-2-pyrimidinyl)oxy]benzonitrile], which pest or weed control at 125 g/ha [1, 17] is on record?
Its pest or weed control at 125 g/ha is 90%.

What about the pest or weed control at 500 g/ha ([1]; 500 g ai/ha, 0 to 100 scale, 0 no effect, 100 complete control, read-out: Plant response rating Foxtail, Giant) of the same compound?
The pest or weed control at 500 g/ha was 100%.

And the pest or weed control at 125 g/ha ([2]; 125 g ai/ha, postemergence, read-out: Plant response rating (0 to 100), Chickweed)?
Its pest or weed control at 125 g/ha is 90%.

What about the pest or weed control at 250 g/ha ([2]; 250 g ai/ha, postemergence, read-out: Plant response rating (0 to 100), Chickweed) of the same compound?
Its pest or weed control at 250 g/ha is 95%.

What about the pest or weed control at 31 g/ha ([2]; Postemergence, 31 g ai/ha, scale 0 to 100 (0 no effect, 100 complete control), 13 to 15 days, read-out: Plant response rating, Chickweed) of the same compound?
Its pest or weed control at 31 g/ha is 40%.

And the pest or weed control at 62 g/ha ([2]; Postemergence, 62 g ai/ha, scale 0 to 100 (0 no effect, 100 complete control), read-out: Plant response rating, Chickweed)?
The pest or weed control at 62 g/ha was 60%.

And the plant injury at 250 g/ha [3]?
Its plant injury at 250 g/ha is 20%.

What about the plant injury at 125 g/ha ([4]; 125 g ai/ha, postemergence, read-out: Plant response rating (0 to 100), Oilseed Rape) of the same compound?
Its plant injury at 125 g/ha is 70%.

And the plant injury at 250 g/ha ([4]; 250 g ai/ha, postemergence, read-out: Plant response rating (0 to 100), Oilseed Rape)?
Its plant injury at 250 g/ha is 85%.

What about the plant injury at 31 g/ha ([4]; Postemergence, 31 g ai/ha, scale 0 to 100 (0 no effect, 100 complete control), 13 to 15 days, read-out: Plant response rating, Oilseed Rape) of the same compound?
Its plant injury at 31 g/ha is 25%.

What about the plant injury at 62 g/ha ([4]; Postemergence, 62 g ai/ha, scale 0 to 100 (0 no effect, 100 complete control), read-out: Plant response rating, Oilseed Rape) of the same compound?
Its plant injury at 62 g/ha is 40%.

And the pest or weed control at 125 g/ha [5, 17]?
The pest or weed control at 125 g/ha was 100%.

And the pest or weed control at 500 g/ha ([5]; 500 g ai/ha, 0 to 100 scale, 0 no effect, 100 complete control, approx. 10 days, read-out: Foxtail, Giant plant response rating)?
Its pest or weed control at 500 g/ha is 100%.

And the pest or weed control at 125 g/ha ([6]; 125 g ai/ha, 0 to 100 scale where 0 is no effect and 100 is complete control, read-out: Plant response rating, Pigweed)?
Its pest or weed control at 125 g/ha is 100%.

And the pest or weed control at 500 g/ha ([6]; 240 h, 500 g ai/ha, 0 to 100 scale, 0 no effect, 100 complete control, read-out: Plant response rating Pigweed)?
The pest or weed control at 500 g/ha was 100%.

What about the pest or weed control at 125 g/ha ([7]; 125 g ai/ha, postemergence, read-out: Plant response rating (0 to 100), Galium) of the same compound?
The pest or weed control at 125 g/ha was 85%.

What about the pest or weed control at 250 g/ha ([7]; 250 g ai/ha, postemergence, read-out: Plant response rating (0 to 100), Galium) of the same compound?
Its pest or weed control at 250 g/ha is 90%.

What about the pest or weed control at 31 g/ha ([7]; Postemergence, 31 g ai/ha, scale 0 to 100 (0 no effect, 100 complete control), 13 to 15 days, read-out: Plant response rating, Galium) of the same compound?
The pest or weed control at 31 g/ha was 60%.

And the pest or weed control at 62 g/ha ([7]; Postemergence, 62 g ai/ha, scale 0 to 100 (0 no effect, 100 complete control), read-out: Plant response rating, Galium)?
Its pest or weed control at 62 g/ha is 60%.

And the Soybean plant response rating (crop injury, 0-100 scale) at 125 g/ha ([8]; 125 g ai/ha, postemergence, read-out: Plant response rating (0 to 100), Soybean)?
Its Soybean plant response rating (crop injury, 0-100 scale) at 125 g/ha is 95%.

What about the Soybean plant response rating (crop injury, 0-100 scale) at 250 g/ha ([8]; 250 g ai/ha, postemergence) of the same compound?
Its Soybean plant response rating (crop injury, 0-100 scale) at 250 g/ha is 95%.

And the Soybean plant response rating (crop injury, 0-100 scale) at 31 g/ha ([8]; Postemergence, 31 g ai/ha, scale 0 to 100 (0 no effect, 100 complete control), 13 to 15 days)?
The Soybean plant response rating (crop injury, 0-100 scale) at 31 g/ha was 40%.

And the Soybean plant response rating (crop injury, 0-100 scale) at 62 g/ha ([8]; Postemergence, 62 g ai/ha, scale 0 to 100 (0 no effect, 100 complete control))?
Its Soybean plant response rating (crop injury, 0-100 scale) at 62 g/ha is 90%.

What about the pest or weed control at 125 g/ha ([9]; 125 g ai/ha, postemergence, read-out: Plant response rating (0 to 100), Waterhemp) of the same compound?
Its pest or weed control at 125 g/ha is 75%.

What about the pest or weed control at 250 g/ha ([9]; 250 g ai/ha, postemergence, read-out: Plant response rating (0 to 100), Waterhemp) of the same compound?
Its pest or weed control at 250 g/ha is 95%.

What about the pest or weed control at 31 g/ha ([9]; Postemergence, 31 g ai/ha, scale 0 to 100 (0 no effect, 100 complete control), 13 to 15 days, read-out: Plant response rating, Waterhemp) of the same compound?
The pest or weed control at 31 g/ha was 70%.

And the pest or weed control at 62 g/ha ([9]; Postemergence, 62 g ai/ha, scale 0 to 100 (0 no effect, 100 complete control), read-out: Plant response rating, Waterhemp)?
The pest or weed control at 62 g/ha was 70%.

And the “Plant response rating, Wheat” value [10, 18]?
The value was 20.

What about the plant injury at 500 g/ha ([10]; Triticum aestivum, pre-emergence, 240 h, 500 g ai/ha, 0 to 100 scale, 0 no effect, 100 complete control, approx. 10 days, read-out: Wheat plant response rating) of the same compound?
Its plant injury at 500 g/ha is 80%.

What about the pest or weed control at 125 g/ha ([11]; 125 g ai/ha, postemergence, read-out: Plant response rating (0 to 100), Ryegrass, Italian) of the same compound?
The pest or weed control at 125 g/ha was 10%.

And the pest or weed control at 250 g/ha ([11]; 250 g ai/ha, postemergence, read-out: Plant response rating (0 to 100), Ryegrass, Italian)?
Its pest or weed control at 250 g/ha is 10%.

And the pest or weed control at 31 g/ha ([11]; Postemergence, 31 g ai/ha, scale 0 to 100 (0 no effect, 100 complete control), 13 to 15 days, read-out: Plant response rating, Ryegrass, Italian)?
The pest or weed control at 31 g/ha was 0%.

What about the pest or weed control at 62 g/ha ([11]; Postemergence, 62 g ai/ha, scale 0 to 100 (0 no effect, 100 complete control), read-out: Plant response rating, Ryegrass, Italian) of the same compound?
Its pest or weed control at 62 g/ha is 5%.

What about the pest or weed control at 125 g/ha ([12]; 125 g ai/ha, postemergence, read-out: Plant response rating (0 to 100), Lambsquarters) of the same compound?
The pest or weed control at 125 g/ha was 90%.

What about the pest or weed control at 250 g/ha ([12]; 250 g ai/ha, postemergence, read-out: Plant response rating (0 to 100), Lambsquarters) of the same compound?
The pest or weed control at 250 g/ha was 100%.

And the pest or weed control at 31 g/ha ([12]; Postemergence, 31 g ai/ha, scale 0 to 100 (0 no effect, 100 complete control), 13 to 15 days, read-out: Plant response rating, Lambsquarters)?
Its pest or weed control at 31 g/ha is 85%.

What about the pest or weed control at 62 g/ha ([12]; Postemergence, 62 g ai/ha, scale 0 to 100 (0 no effect, 100 complete control), read-out: Plant response rating, Lambsquarters) of the same compound?
Its pest or weed control at 62 g/ha is 90%.

And the pest or weed control at 125 g/ha ([13]; 125 g ai/ha, 0 to 100 scale where 0 is no effect and 100 is complete control, read-out: Plant response rating, Crabgrass, Large)?
Its pest or weed control at 125 g/ha is 90%.

And the pest or weed control at 500 g/ha ([13]; 500 g ai/ha, 0 to 100 scale, 0 no effect, 100 complete control, read-out: Plant response rating Crabgrass, Large)?
The pest or weed control at 500 g/ha was 100%.

What about the pest or weed control at 250 g/ha [14] of the same compound?
Its pest or weed control at 250 g/ha is 30%.

And the Corn plant response rating (crop injury, 0 = no effect, 100 = complete kill) at 125 g/ha [15, 18]?
The Corn plant response rating (crop injury, 0 = no effect, 100 = complete kill) at 125 g/ha was 20%.

And the plant injury at 500 g/ha ([15]; 500 g ai/ha, 0 to 100 scale, 0 no effect, 100 complete control, approx. 10 days, read-out: Corn plant response rating)?
Its plant injury at 500 g/ha is 80%.

And the pest or weed control at 250 g/ha [16]?
The pest or weed control at 250 g/ha was 95%.
